Structures are written as SMILES.

This assay deals with T1, partially purified rat brain farnesyl protein transferase (FPT) (Rattus norvegicus, UniProt Q02293+Q04631).
T1 construct: partially purified rat brain farnesyl protein transferase (FPT); from tissue; host or cells: rat brain
Nature of the assay: In vitro enzyme assay: inhibition of Ras-CVLS farnesylation by farnesyl protein transferase. The format is biochemical. The method, then:
1. In vitro enzyme assays: FPT IC50 (inhibition of farnesyl protein transferase, in vitro enzyme assay) are determined by the methods disclosed in WO/10515 or WO 95110516.
As for `COc1cc(C)cc2c1C(C1CCN(C(=O)Cc3cc[n+]([O-])cc3)CC1)c1ncc(Br)cc1CC2` (racemic) [Example 3, (+,−)-4-(3-Bromo-10-methoxy-8-methyl-6,11-dihydro-5H-benzo[5,6]cyclohepta[1,2-b]pyridin-11-yl)-1-(4-pyridinylacetyl)piperidine N1-oxide], the IC50 was determined as 0.0032 µM.
Take `COc1cc(C)cc2c1C(C1CCN(C(=O)Cc3cc[n+]([O-])cc3)CC1)c1ncccc1CC2` (racemic) [Example 4, (+,−)-4-(6,11-dihydro-10-methoxy-8-methyl-5H-benzo[5,6]cyclohepta[1,2-b]pyridin-11-yl)-1-(4-pyridinylacetyl)piperidine N-1 oxide]: inhibition was half-maximal at 0.14 µM (IC50). Compared with the last molecule, the IC50 is about 44-fold higher.
The molecule `Cc1cc(O)c2c(c1)CCc1cc(Br)cnc1C2C1CCN(C(=O)Cc2cc[n+]([O-])cc2)CC1` (racemic) [Example 9, (+,−)-4-(3-Bromo-10-hydroxy-8-methyl-5,6-dihydro-11H-benzo[5,6]cyclohepta[1,2-b]pyridin-11-yl)-1-(4-pyridinylacetyl)piperidine N1-oxide] returned an IC50 of 0.12 µM.
As for `COc1cc(C)cc2c1C(N1CCN(C(=O)Cc3cc[n+]([O-])cc3)CC1)c1ncc(Br)cc1CC2` (racemic) [Example 10, (+,−)-1-(3-Bromo-10-methoxy-8-methyl-6,11-dihydro-5H-benzo[5,6]cyclohepta[1,2-b]pyridin-1 1-yl)-4-(4-pyridinylacetyl)piperazine N4-oxide], the IC50 is 0.016 µM.
Molecule `Cc1cccc2c1CCc1cc(Br)cnc1C2N1CCN(C(=O)Cc2cc[n+]([O-])cc2)CC1` (racemic) [Example 14, (+,−)-1-(3-Bromo-7-methyl-6,11-dihydro-5H-benzo[5,6]cyclohepta[1,2-b]pyridin-11-yl)-4-(4-pyridinylacetyl)piperazine N4-oxide] came in with a concentration for half-maximal inhibition (IC50) of 0.11 µM.
`Cc1ccc(C)c2c1CCc1cc(Br)cnc1C2N1CCN(C(=O)Cc2cc[n+]([O-])cc2)CC1` (racemic) [Example 15, (+,−)-1-(3-Bromo-7,10-dimethyl-6,11-dihydro-5H-benzo[5,6]cyclohepta[1,2-b]pyridin-11-yl)-4-(4-pyridinylacetyl)piperazine N4-oxide] returned an IC50 of 0.13 µM.
Molecule `Cc1ccc2c(c1)CCc1cc(Br)cnc1C2N1CCN(C(=O)Cc2cc[n+]([O-])cc2)CC1` (racemic) [Example 16, (+,−)-1-(3-Bromo-8-methyl-6,11-dihydro-5H-benzo[5,6]cyclohepta[1,2-b]pyridin-11-yl)-4-(4-pyridinylacetyl)piperazine N4-oxide] came in with an IC50 of 0.064 µM.
In turn, `COc1ccc2c(c1)CCc1cc(Br)cnc1C2N1CCN(C(=O)Cc2cc[n+]([O-])cc2)CC1` (racemic) [Example 17, (+,−)-1-(3-Bromo-6,11-dihydro-8-methoxy-5H-benzo[5,6]cyclohepta[1 ,2-b]pyridin-11-yl)-4-(4-pyridinylacetyl)piperazine N4-oxide] showed an IC50 of 0.29 µM.
In the case of `Cc1cc(C)c2c(c1)CCc1cc(Br)cnc1C2N1CCN(C(=O)Cc2cc[n+]([O-])cc2)CC1` (racemic) [Example 18, (+,−)-1-(3-Bromo-6,11-dihydro-8,10-dimethyl-5H-benzo[5,6]cyclohepta[1,2-b]pyridin-11-yl)-4-(4-pyridinylacetyl)piperazine N4-oxide], the IC50 came out at 0.043 µM.
`Cc1cc(Br)c2c(c1)CCc1cc(Br)cnc1C2N1CCN(C(=O)Cc2cc[n+]([O-])cc2)CC1` (racemic) [Example 21] displayed an IC50 of 0.0048 µM.
In the case of `Cc1cc(Br)cc2c1C(N1CCN(C(=O)Cc3cc[n+]([O-])cc3)CC1)c1ncc(Br)cc1CC2` (racemic) [Example 22, (+,−)-1-(3,8-Dibromo-6,11-dihydro-10-methyl-5H-benzo[5,6]cyclohepta[1,2-b]pyridin-11-yl)-4-(4-pyridinylacetyl)piperazine N4-oxide], 0.0099 µM corresponded to half-maximal inhibition (IC50).
`COc1cc(C)cc2c1C(C1CCN(C(=O)Cc3cc[n+]([O-])cc3)CC1)c1ncc(C(C)(C)O)cc1CC2` (racemic) [Example 23, (+,−)-4-[6,11-dihydro-3-(1-hydroxy-1-methylethyl)-10-methoxy-8-methyl-5H-benzo[5,6]cyclohepta[1,2-b]pyridin-11-yl]-1-(4-pyridinylacetyl)piperidine N1-oxide] gave an IC50 of more than 0.2 µM.
The molecule `COc1cc(C)c2c(c1)CCc1cc(Br)cnc1C2N1CCN(C(=O)Cc2cc[n+]([O-])cc2)CC1` (racemic) [Example 26, (+,−)-1-(3-Bromo-8-methoxy-10-methyl-6,11-dihydro-5H-benzo[5,6]cyclohepta[1 ,2-b]pyridin-11-yl)-4-(4-pyridinylacetyl)piperzazine N4-oxide] came in with a 50% inhibitory concentration (IC50) of 0.058 µM.
For `COc1cc(C)cc2c1C(C1CCN(C(=O)Cc3cc[n+]([O-])cc3)CC1)c1ncc(C3CC3)cc1CC2` (racemic) [Example 32], the IC50 was more than 0.2 µM.
For `COc1cc(C)cc2c1C(N1CCN(C(=O)Cc3cc[n+]([O-])cc3)CC1)c1ncc(Br)cc1CC2` (single isomer, unassigned; (+)) [Example 20, (+)-1-(3-Bromo-10-methoxy-8-methyl-6,11-dihydro-5H-benzo[5,6]cyclohepta[1,2-b]pyridin-11-yl)-4-(4-pyridinylacetyl)piperazine N4-oxide, (+) enantiomer], the 50% inhibitory concentration (IC50) was more than 0.18 µM.
For the molecule `COc1cc(C)cc2c1C(C1CCN(C(=O)Cc3cc[n+]([O-])cc3)CC1)c1ncc(Br)cc1CC2` (single isomer, unassigned; (+)) [Example 24, (+)-4-(3-Bromo-10-methoxy-8-methyl-6,11-dihydro-5H-benzo[5,6]cyclohepta[1,2-b]pyridin-11-yl)-4-(4-pyridinylacetyl)piperidine N1-oxide, (+) enantiomer], the IC50 turned out to be 0.0036 µM.
The molecule `Cc1cc(Br)c2c(c1)CCc1cc(Br)cnc1C2C1CCN(C(=O)Cc2cc[n+]([O-])cc2)CC1` (single isomer, unassigned; (+)) [Example 33, (+) 4-(3-Bromo-6,11-dihydro-10-bromo-8-methyl-5H-benzo[5,6]cyclohepta[1,2-b]pyridin-11-yl)-1-(4-pyridinylacetyl)piperidine N1 -Oxide] registered a 50% inhibitory concentration (IC50) of 0.0012 µM.
Next, `Cc1cc(Br)c2c(c1)CCc1cc(Br)cnc1C2(O)C1CCN(C(=O)Cc2cc[n+]([O-])cc2)CC1` (single isomer, unassigned; (+)) [Example 35, (+) 4-(3-Bromo-6,11-dihydro-11-hydroxy-10-bromo-8-methyl-5H-benzo[5,6]cyclohepta[1,2-b]pyridin-11-yl)-1-(4-pyridinylacetyl)piperidine N1-Oxide]: 0.0108 µM; `COc1cc(C)cc2c1C(N1CCN(C(=O)Cc3cc[n+]([O-])cc3)CC1)c1ncc(Br)cc1CC2` (single isomer, unassigned; (-)) [Example 19, (−)-1-(3-Bromo-10-methoxy-8-methyl-6,11-dihydro-5H-benzo[5,6]cyclohepta[1,2-b]pyridin-11-yl)-4-(4-pyridinylacetyl)piperazine N4-oxide, (−) enantiomer]: 0.0042 µM.
As to `COc1cc(C)cc2c1C(C1CCN(C(=O)Cc3cc[n+]([O-])cc3)CC1)c1ncc(Br)cc1CC2` (single isomer, unassigned; (-)) [Example 25, (−)-4-(3-Bromo-10-methoxy-8-methyl-6,11-dihydro-5H-benzo[5,6]cyclohepta[1,2-b]pyridin-11-yl)-4-(4-pyridinylacetyl)piperidine N1-oxide, (−) enantiomer], the IC50 worked out at 0.22 µM.
Molecule `Cc1cc(Br)c2c(c1)CCc1cc(Br)cnc1C2C1CCN(C(=O)Cc2cc[n+]([O-])cc2)CC1` (single isomer, unassigned; (-)) [Example 34, (−) 4-(3-Bromo-6,11-dihydro-10-bromo-8-methyl-5H-benzo[5,6]cyclohepta[1,2-b]pyridin-11-yl)-1-(4-pyridinylacetyl)piperidine N1-Oxide] yielded an IC50 of more than 0.016 µM.
The molecule `Cc1cc(Br)c2c(c1)CCc1cc(Br)cnc1C2(O)C1CCN(C(=O)Cc2cc[n+]([O-])cc2)CC1` (single isomer, unassigned; (-)) [Example 36, (−) 4-(3-Bromo-6,11-dihydro-11-hydroxy-10-bromo-8-methyl-5H-benzo[5,6]cyclohepta[1,2-b]pyridin-11-yl)-1-(4-pyridinylacetyl)piperidine N1-Oxide] gave an IC50 of 0.0054 µM.
The molecule `COc1cc2c(c(OC)c1)C(N1CCN(C(=O)Cc3cc[n+]([O-])cc3)CC1)c1ncc(Br)cc1CC2` (stereo not drawn) [Example 1, 1-(3-Bromo-6,11-dihydro-8,10-dimethoxy-5H-benzo[5,6]cyclohepta[1,2-b]pyridin-11-yl)-4-(4-pyridinylacetyl)piperazine N4-oxide] gave an IC50 of 0.067 µM.
Take `COc1cc(C)cc2c1C(C1CCN(C(=O)Cc3cc[n+]([O-])cc3)CC1)c1ncc(C)cc1CC2` (stereo not drawn) [Example 2, 4-(6,11-dihydro-10-methoxy-3,8-dimethyl-5H-benzo[5,6]cyclohepta[1,2-b]pyridin-11-yl)-1-(4-pyridinylacetyl)piperidine N1-15 oxide]: the IC50 came out at 0.034 µM.
Molecule `COc1cc(C)c(Cl)c2c1C(=C1CCN(C(=O)Cc3cc[n+]([O-])cc3)CC1)c1ncccc1CC2` [Example 5, (+,−)-4-(7-Chloro-5,6-dihydro-8-methyl-10-methoxy-11H-benzo[5,6]cyclohepta[1,2-b]pyridin-11-ylidene)-1-(4-pyridinylacetyl)piperidine N1-oxide] displayed an IC50 of more than 0.2 µM.
`Cc1cc(O)c2c(c1)CCc1cc(Br)cnc1C2=C1CCN(C(=O)Cc2cc[n+]([O-])cc2)CC1` [Example 6, (+,−)-4-(3-Bromo-10-hydroxy-8-methyl--5,6-dihydro-11H-benzo[5,6]cyclohepta[1,2-b]pyridin-11-ylidene)-1-(4-pyridinylacetyl)piperidine N1-oxide] yielded an IC50 of 0.045 µM.
Next, `COc1cc(C)cc2c1C(=C1CCN(C(=O)Cc3cc[n+]([O-])cc3)CC1)c1ncc(C)cc1CC2` [Example 7, 4-(5,6-dihydro-10-methoxy-3,8-dimethyl-11H-benzo[5,6]cyclohepta[1,2-b]pyridin-11-ylidene)-1-(4-pyridinylacetyl)piperidine N1-oxide]: 0.06 µM.
